Source: paper PMC7069944, “Amino acid levels determine metabolism and CYP450 function of hepatocytes and hepatoma cell lines” (Nature Communications, 2020)
Values joined by “and” are separate entries in the source; they are usually repeats but may differ in a detail not shown here. Identical values can stand only once.

How the values were obtained:
[1] = tested on: HC6X; assay: Repeated-exposure DILI training compounds, resazurin conversion, HC6X; conditions: replicates, listed as Ximelatagran
Summary of the method: (§1)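 PSC-derived cells differentiated in 384-well format, plus HepG2 seeded at 40,000 cells/well, received drugs after 8 h of attachment; untreated wells served as negative controls. Viability was measured by resazurin conversion and related to therapeutic Cmax values.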

[2] = tested on: HepG2; assay: Repeated-exposure DILI training compounds, resazurin conversion, HepG2; conditions: replicates, listed as Ximelatagran
Summary of the method: as §1

[3] = tested on: HLC; assay: Repeated-exposure DILI training compounds, resazurin conversion, HLC; conditions: replicates, listed as Ximelatagran
Summary of the method: as §1

[4] = tested on: HC3X; assay: Repeated-exposure DILI training compounds, resazurin conversion, HC3X; conditions: for resazurin conversion (Supplementary Figure 7D): HC3X AAGLY D40, replicates, listed as Ximelatagran
Summary of the method: as §1

CCOC(=O)CN[C@@H](C(=O)N1CC[C@H]1C(=O)NCc1ccc(/C(N)=N\O)cc1)C1CCCCC1 [ximelagatran]
resazurin conversion (Supplementary Figure 7D) ([1]; HC6X AAGLY D40, 10 uM): 93.8 and 58.7 and 78.1 and 118.1
resazurin conversion (Supplementary Figure 7D) ([1]; HC6X AAGLY D40, 30 uM): 71.1 and 54.3 and 108.4 and 77.4 and 109.2 and 98.7
resazurin conversion (Supplementary Figure 7D) ([1]; HC6X AAGLY D40, 50 uM): 68.8 and 53.6 and 125.9 and 98.4 and 222.1 and 82.6
resazurin conversion (Supplementary Figure 7D) ([1]; HC6X AAGLY D40, 100 uM): 99.7 and 88.3 and 135.4 and 113.5 and 107.4 and 93.9
resazurin conversion (Supplementary Figure 7D) ([1]; HC6X AAGLY D40, 300 uM): 82 and 93.2 and 129.1 and 140.3 and 141.2 and 166.5
resazurin conversion (Supplementary Figure 7D) ([1]; HC6X AAGLY D40, 500 uM): 65.3 and 103.3 and 98.2 and 91.7 and 122.8 and 148.3
resazurin conversion (Supplementary Figure 7D) ([1]; HC6X AAGLY D40, 1000 uM): 71.6 and 76.5 and 78.4 and 144 and 115.7 and 139.1
resazurin conversion (Supplementary Figure 7D) ([1]; HC6X AAGLY D40, 2000 uM): 61.7 and 53.9 and 78.6 and 67 and 113.9 and 90
resazurin conversion (Supplementary Figure 7D) ([1]; HC6X AAGLY D40, 4000 uM): 54.4 and 81.3 and 84.4 and 85.7 and 55.2 and 56.8
resazurin conversion (Supplementary Figure 7D) ([1]; HC6X AAGLY D40 Remove dox, 30 uM): 72.9 and 78.3 and 89.9 and 101.5 and 95.4 and 95.8
resazurin conversion (Supplementary Figure 7D) ([1]; HC6X AAGLY D40 Remove dox, 50 uM): 55.3 and 86.1 and 70.5 and 85.8 and 92.1 and 68.6
resazurin conversion (Supplementary Figure 7D) ([1]; HC6X AAGLY D40 Remove dox, 100 uM): 82.1 and 85 and 79 and 110.7 and 88.3 and 96.6
resazurin conversion (Supplementary Figure 7D) ([1]; HC6X AAGLY D40 Remove dox, 300 uM): 99.4 and 92.8 and 102.5 and 91.4 and 94.8 and 77.9
resazurin conversion (Supplementary Figure 7D) ([1]; HC6X AAGLY D40 Remove dox, 500 uM): 78.1 and 81.7 and 105.3 and 97 and 101.1 and 82.7
resazurin conversion (Supplementary Figure 7D) ([1]; HC6X AAGLY D40 Remove dox, 1000 uM): 77.2 and 89.1 and 81.5 and 96.6 and 108.9 and 116.8
resazurin conversion (Supplementary Figure 7D) ([1]; HC6X AAGLY D40 Remove dox, 2000 uM): 95.3 and 105.5 and 72.8 and 94.8 and 76.2 and 80.9
resazurin conversion (Supplementary Figure 7D) ([1]; HC6X AAGLY D40 Remove dox, 4000 uM): 46.6 and 40.3 and 96 and 68.1 and 83.6 and 42.4
resazurin conversion (Supplementary Figure 7D) ([2]; HepG2 AAGLY D30, 10 uM): 94.6 and 101.9 and 93.6
resazurin conversion (Supplementary Figure 7D) ([2]; HepG2 AAGLY D30, 30 uM): 92.6 and 98.4 and 83.3 and 96.4 and 96.6 and 94.8
resazurin conversion (Supplementary Figure 7D) ([2]; HepG2 AAGLY D30, 50 uM): 93.8 and 101.4 and 83.8 and 100.6 and 100.8 and 103
resazurin conversion (Supplementary Figure 7D) ([2]; HepG2 AAGLY D30, 100 uM): 87.1 and 96.4 and 79.9 and 96 (2×) and 99.8
resazurin conversion (Supplementary Figure 7D) ([2]; HepG2 AAGLY D30, 300 uM): 79.2 and 92.1 and 83.1 and 91.5 (2×) and 86.4
resazurin conversion (Supplementary Figure 7D) ([2]; HepG2 AAGLY D30, 500 uM): 73.8 and 82.7 and 72.5 and 77.3 and 81.8 and 90.8
resazurin conversion (Supplementary Figure 7D) ([2]; HepG2 AAGLY D30, 1000 uM): 33.4 and 32.8 and 32.2 and 33.5 and 33 and 34
resazurin conversion (Supplementary Figure 7D) ([2]; HepG2 AAGLY D30, 2000 uM): 32.1 and 33.4 and 32.3 and 33 and 31.5 and 35.4
resazurin conversion (Supplementary Figure 7D) ([2]; HepG2 AAGLY D30, 4000 uM): 32.2 and 33.1 and 31.8 and 32.9 (2×) and 31.4
resazurin conversion (Supplementary Figure 7D) ([2]; HepG2 CTL D7, 10 uM): 100
resazurin conversion (Supplementary Figure 7D) ([2]; HepG2 CTL D7, 30 uM): 113.6 and 106.8 and 92.5 and 99.4 and 103.9 and 98.2
resazurin conversion (Supplementary Figure 7D) ([2]; HepG2 CTL D7, 50 uM): 100.3 and 102 and 94.9 and 85.4 and 97.6 and 93
resazurin conversion (Supplementary Figure 7D) ([2]; HepG2 CTL D7, 100 uM): 99.5 and 95.1 and 87 and 84.8 and 92.1 and 91.7
resazurin conversion (Supplementary Figure 7D) ([2]; HepG2 CTL D7, 300 uM): 98.7 and 94.5 and 90.1 and 84 and 87.6 and 84.8
resazurin conversion (Supplementary Figure 7D) ([2]; HepG2 CTL D7, 500 uM): 86.4 and 89.2 and 85.2 and 81.4 and 85.9 and 81.5
resazurin conversion (Supplementary Figure 7D) ([2]; HepG2 CTL D7, 1000 uM): 71.2 and 56.7 and 60.3 and 67.6 and 70.2 and 66
resazurin conversion (Supplementary Figure 7D) ([2]; HepG2 CTL D7, 2000 uM): 35.7 and 15 and 22 and 29.6 and 28.3 and 27.1
resazurin conversion (Supplementary Figure 7D) ([2]; HepG2 CTL D7, 4000 uM): 7.9 (2×) and 7.7 (3×) and 8
resazurin conversion (Supplementary Figure 7D) ([3]; HLC AAGLY D40, 30 uM): 87.9 and 61.4 and 89.7 and 86.8 and 95.5 and 101.7
resazurin conversion (Supplementary Figure 7D) ([3]; HLC AAGLY D40, 50 uM): 102.7 and 110.5 and 84 and 85.7 and 101.4 and 47.2
resazurin conversion (Supplementary Figure 7D) ([3]; HLC AAGLY D40, 100 uM): 101.8 and 83.1 and 91.6 and 97.8 and 108.1 and 71.2
resazurin conversion (Supplementary Figure 7D) ([3]; HLC AAGLY D40, 300 uM): 102 and 100.4 and 103.4 and 99.6 and 91.1 and 43.4
resazurin conversion (Supplementary Figure 7D) ([3]; HLC AAGLY D40, 500 uM): 103.1 and 102.1 and 106.2 and 106.4 and 103.3 and 93.1
resazurin conversion (Supplementary Figure 7D) ([3]; HLC AAGLY D40, 1000 uM): 124.2 and 94.4 and 100.6 and 122 and 108.3 and 107.9
resazurin conversion (Supplementary Figure 7D) ([3]; HLC AAGLY D40, 2000 uM): 74 and 131.7 and 126.4 and 135.7 and 116.8 and 129.6
resazurin conversion (Supplementary Figure 7D) ([3]; HLC AAGLY D40, 4000 uM): 129.4 and 115 and 25.5 and 112.7 and 127.1 and 50.9
resazurin conversion (Supplementary Figure 7D) ([3]; HLC LDM D40, 10 uM): 103 and 119.6 and 106.5 and 118.8
resazurin conversion (Supplementary Figure 7D) ([3]; HLC LDM D40, 30 uM): 98.9 and 98.8 and 106 and 104.1 and 100.4 and 102.4
resazurin conversion (Supplementary Figure 7D) ([3]; HLC LDM D40, 50 uM): 120.6 and 118.1 and 72.7 and 111.9 and 69.1 and 123.9
resazurin conversion (Supplementary Figure 7D) ([3]; HLC LDM D40, 100 uM): 93.8 and 126.7 and 78.4 and 121.1 and 87.3 and 126.3
resazurin conversion (Supplementary Figure 7D) ([3]; HLC LDM D40, 300 uM): 125.4 and 106 and 125.6 and 93.6 and 136.9 and 112.2
resazurin conversion (Supplementary Figure 7D) ([3]; HLC LDM D40, 500 uM): 130.3 and 128.1 and 99.5 and 124.6 and 98 and 115.9
resazurin conversion (Supplementary Figure 7D) ([3]; HLC LDM D40, 1000 uM): 132.9 and 140 and 126.4 and 146.9 and 116.4 and 158.5
resazurin conversion (Supplementary Figure 7D) ([3]; HLC LDM D40, 2000 uM): 87.8 and 64.2 and 95.2 and 125.1 and 69.7 and 117.1
resazurin conversion (Supplementary Figure 7D) ([3]; HLC LDM D40, 4000 uM): 52.7 and 74.5 and 71.5 and 69.4 and 112 and 163.8
resazurin conversion (Supplementary Figure 7D) ([4]; 10 uM): 103.6 and 112.1 and 116.7 and 110.7 and 88 and 80.4
resazurin conversion (Supplementary Figure 7D) ([4]; 30 uM): 112.5 and 93.4 and 100.9 and 65.5 and 110.1 and 86
resazurin conversion (Supplementary Figure 7D) ([4]; 50 uM): 112.6 and 97.1 and 99.6 and 78.9 and 96.7 and 79.4
resazurin conversion (Supplementary Figure 7D) ([4]; 100 uM): 99 and 94.2 and 111.5 and 113 and 97.2 and 95.7
resazurin conversion (Supplementary Figure 7D) ([4]; 300 uM): 105.9 and 98.6 and 86.6 and 80.1 and 95.6 and 93.9
resazurin conversion (Supplementary Figure 7D) ([4]; 500 uM): 93.3 and 104.7 and 99.6 and 103.7 and 88.7 and 115
resazurin conversion (Supplementary Figure 7D) ([4]; 1000 uM): 89.5 and 109.6 and 93 and 88.2 and 108.4 and 91.9
resazurin conversion (Supplementary Figure 7D) ([4]; 2000 uM): 61.4 and 104.7 and 97.3 and 97.1 and 64.3 and 60.4
resazurin conversion (Supplementary Figure 7D) ([4]; 4000 uM): 43.9 and 48.4 and 38 and 42.8 and 47.8 and 45
IC50/Cmax ([4]; human): 2438.67
